The record followed here is patent US5688787A, “Substituted β-lactam compounds useful as hypochlesterolemic agents and processes for the preparation thereof” (priority 1996, dated 1997).

Like-named read-outs stand apart in the source and are kept apart here.

The subject of the experiment is Hyperlipidemic Hamster. In words: In Vivo Assay of Hypolipidemic Agents Using the Hyperlipidemic Hamster. Conditions: 7 days, percent change versus control, negative = lowering; for % Reduction (in vivo) Cholest. Esters / % Reduction (in vivo) Serum Cholest. / change in vivo at 50 mg/kg: 50 mg/kg once daily oral; for change in vivo at 50 mg/kg / change in vivo at 10 mg/kg / change in vivo at 25 mg/kg: Mesocricetus auratus, po, 168 h; for change in vivo at 10 mg/kg: 10 mg/kg once daily oral; for change in vivo at 25 mg/kg: 25 mg/kg once daily oral. A digest of the protocol: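 Hamsters, six per group, were fed chow with 0.5% cholesterol for seven days and given compound once daily by oral gavage in corn oil; controls received corn oil alone. Plasma (EDTA) and liver lipids were measured at sacrifice. Values are percent change versus control, so negative means lowering.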

Setting [1] is: read-out: % Reduction (in vivo) Cholest. Esters.
The mark [2] stands for this setting: read-out: % Reduction (in vivo) Serum Cholest.

For the compound `COc1ccc(N2C(=O)C(CCCc3ccccc3)C2c2ccc(C3OCCO3)cc2)cc1` (stereo not shown) [Example 31A], the “% Reduction (in vivo) Cholest. Esters” value came out at 0% and the “% Reduction (in vivo) Serum Cholest.” value is on record as 0%.

In the case of `COc1ccc(N2C(=O)[C@H](CCCc3ccccc3)[C@H]2c2ccc(N(C)C)cc2)cc1` (relative stereo) [Example 7U], the change in vivo at 50 mg/kg runs as follows: under setting [1], -60%; under setting [2], -29%.

`CCCCCCCCCC[C@H]1C(=O)N(c2ccc(OC)cc2)[C@@H]1c1ccc(OC)cc1` (relative stereo) [Example 7AG]: the change in vivo at 50 mg/kg runs as follows: under setting [1], -15%; under setting [2], 0%.

`COc1ccc(N2C(=O)C(CCCc3ccccc3)C2c2ccc(C3OCCO3)cc2)cc1` (stereo not shown) [Example 1AX]: the “% Reduction (in vivo) Cholest. Esters” value is reported as -52% and the “% Reduction (in vivo) Serum Cholest.” value is reported as -16%.

Regarding `COc1ccc(N2C(=O)[C@H](CCCc3ccccc3)[C@@H]2c2ccc(NS(C)(=O)=O)cc2)cc1` (relative stereo) [Example 25], the change in vivo at 50 mg/kg under setting [1] was -34% and the change in vivo at 50 mg/kg under setting [2] was -8%.

On to `COc1ccc([C@@H]2[C@@H](CCCc3ccccc3)C(=O)N2c2ccccc2)cn1` (relative stereo) [Example 7O], for which the change in vivo at 50 mg/kg runs as follows: under setting [1], -20%; under setting [2], -14%.

With `COc1ccc([C@@H]2[C@@H](CCCc3ccccc3)C(=O)N2c2ccc(OC)cc2)cc1` (relative stereo) [Example 5], the “% Reduction (in vivo) Cholest. Esters” value was -77.5% and the “% Reduction (in vivo) Serum Cholest.” value is -29%. Under setting [1], the change in vivo at 10 mg/kg was -60% and the change in vivo at 25 mg/kg was -72%. Under setting [2], the change in vivo at 10 mg/kg was -21% and the change in vivo at 25 mg/kg was -20%.

As to `COc1ccc(N2C(=O)[C@@H](CCCc3ccccc3)[C@H]2c2ncc[nH]2)cc1` (relative stereo) [Example 18], the change in vivo at 50 mg/kg by setting is: under setting [1], 0%; under setting [2], 0%.

Regarding `COc1ccc(N2C(=O)[C@H](CCCc3ccccc3)[C@H]2c2cc[n+]([O-])cc2)cc1` (relative stereo) [Example 20], the change in vivo at 50 mg/kg under setting [1] turned out to be 0% and the change in vivo at 50 mg/kg under setting [2] is 12%.

As for `COc1ccc(N2C(=O)[C@H](CCCc3ccccc3)[C@H]2c2cc(I)c(O)c(I)c2)cc1` (relative stereo) [Example 32A], the change in vivo at 50 mg/kg is 0% under setting [1] and 0% under setting [2].

Take `C=CCOc1ccc([C@H]2[C@@H](CCCc3ccccc3)C(=O)N2c2ccc(OC)cc2)cc1` (relative stereo) [Example 1BU]: the change in vivo at 50 mg/kg under setting [1] was -95% and the change in vivo at 50 mg/kg under setting [2] was -39%.

As for `COc1ccc([C@@H]2[C@H](NC(=O)N(C)c3ccccc3)C(=O)N2c2ccccc2)cc1` (relative stereo) [Example 12D], the change in vivo at 50 mg/kg came to 0% under setting [1] and 0% under setting [2].

With `COc1ccc(N2C(=O)[C@H](CCCc3ccccc3)[C@H]2c2ccc(NC(C)=O)cc2)cc1` (relative stereo) [Example 26], the change in vivo at 50 mg/kg was -26% under setting [1] and -4% under setting [2].

As for `COc1ccc(N2C(=O)[C@H](CCCc3ccccc3)[C@H]2c2ccc(OC)c(F)c2)cc1` (relative stereo) [Example 7S], the change in vivo at 50 mg/kg under setting [1] was -82% and the change in vivo at 50 mg/kg under setting [2] is -27%.

Consider `COCOc1ccc([C@@H]2[C@@H](CCCc3ccccc3)C(=O)N2c2ccccc2)cc1` (relative stereo) [Example 7T], for which the change in vivo at 50 mg/kg was -93% under setting [1] and -49% under setting [2].
